Results: PMC4571851, “Arginine-Ornithine Antiporter ArcD Controls Arginine Metabolism and Interspecies Biofilm Development of Streptococcus gordonii” (The Journal of Biological Chemistry, 2015)

Target: T1, ArcD (arginine-ornithine antiporter) (Streptococcus gordonii, UniProt A8AYK8)
T1 construct: native full-length membrane transporter in intact wild-type S. gordonii cells; deletion mutant and complemented strain as controls
Assay: inhibition of [3H]arginine uptake into intact wild-type cells
Assay type: cell-based
Settings: whole cells in PBS, 20 s, 50 μM labelled arginine, unlabelled ornithine at 100-fold excess

T1 sequence (A8AYK8 entry or part of it): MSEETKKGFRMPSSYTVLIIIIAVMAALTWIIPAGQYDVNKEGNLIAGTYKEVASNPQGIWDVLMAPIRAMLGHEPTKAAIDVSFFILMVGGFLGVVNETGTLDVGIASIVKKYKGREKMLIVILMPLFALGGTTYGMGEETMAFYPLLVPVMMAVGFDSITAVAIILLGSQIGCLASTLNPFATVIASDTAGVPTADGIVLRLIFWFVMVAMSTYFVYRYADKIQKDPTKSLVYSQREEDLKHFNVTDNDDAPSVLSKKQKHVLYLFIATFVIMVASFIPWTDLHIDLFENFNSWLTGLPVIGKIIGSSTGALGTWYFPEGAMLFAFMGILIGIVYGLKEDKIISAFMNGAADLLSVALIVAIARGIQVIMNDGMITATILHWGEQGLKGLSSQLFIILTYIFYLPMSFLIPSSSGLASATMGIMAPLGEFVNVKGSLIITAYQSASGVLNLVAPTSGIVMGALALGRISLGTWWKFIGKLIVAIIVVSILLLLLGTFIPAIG

NCCC[C@H](N)C(=O)O [Ornithine]
% inhibition at 100-fold excess: Ornithine also had a moderate effect on the inhibition of arginine uptake
